ChEMBL document CHEMBL3400114, “The design, synthesis and biological evaluation of conformationally restricted 4-substituted-2,6-dimethylfuro[2,3-d]pyrimidines as multi-targeted receptor tyrosine kinase and microtubule inhibitors as potential antitumor agents” (Bioorg Med Chem, 2015)

Key:
SW-620 = test: Growth inhibition of human SW620 cells after 48 hrs by sulforhodamine B assay; assay type: functional; settings: SW-620, 48 h
NCI-H522 = test: Growth inhibition of human NCI-H522 cells after 48 hrs by sulforhodamine B assay; assay type: functional; settings: NCI-H522, 48 h
[1] = Growth inhibition of human OVCAR8 cells after 48 hrs by sulforhodamine B assay; assay type: functional; settings: OVCAR-8, 48 h
[2] = Growth inhibition of human […] cells after 48 hrs by sulforhodamine B assay; assay type: functional
SK-OV-3 [3] = test: Growth inhibition of human SKOV3 cells after 48 hrs by sulforhodamine B assay; assay type: functional; settings: SK-OV-3, 48 h
HeLa [4] = test: Antiproliferative activity against human HeLa cells overexpressing wild type beta3 tubulin after 48 hrs by sulforhodamine B assay; assay type: functional, cell-based
MDA-MB-435 [5] = test: Antiproliferative activity against human MDA-MB-435 cells after 48 hrs by sulforhodamine B assay; assay type: functional, cell-based; settings: MDA-MB-435, 48 h
SK-OV-3 [6] = test: Resistance ratio of IC50 for human SKOV3-MDR1-M6/6 cells to IC50 for human SKOV3 cells; assay type: functional
DU-145 = test: Growth inhibition of human DU145 cells after 48 hrs by sulforhodamine B assay; assay type: functional; settings: DU-145, 48 h
[7] = Growth inhibition of human HCT116 cells after 48 hrs by sulforhodamine B assay; assay type: functional; settings: HCT-116, 48 h
HOP-62 = test: Growth inhibition of human HOP62 cells after 48 hrs by sulforhodamine B assay; assay type: functional; settings: HOP-62, 48 h
NCI/ADR-RES = test: Growth inhibition of human NCI/ADR-RES cells after 48 hrs by sulforhodamine B assay; assay type: functional
[8] = Antiproliferative activity against human SKOV3-MDR1-M6/6 cells overexpressing wild type beta3 tubulin after 48 hrs by sulforhodamine B assay; assay type: functional, cell-based; settings: SKOV3-MDR1-M6/6, 48 h
[9] = Growth inhibition of human OVCAR3 cells after 48 hrs by sulforhodamine B assay; assay type: functional; settings: OVCAR-3, 48 h
MCF7 = test: Growth inhibition of human MCF7 cells after 48 hrs by sulforhodamine B assay; assay type: functional; settings: MCF7, 48 h
[10] = Growth inhibition of human LOXIMVI cells after 48 hrs by sulforhodamine B assay; assay type: functional; settings: LOX IMVI
[11] = Growth inhibition of human Hs 578T cells after 48 hrs by sulforhodamine B assay; assay type: functional
CAKI-1 = test: Growth inhibition of human Caki1 cells after 48 hrs by sulforhodamine B assay; assay type: functional; settings: CAKI-1, 48 h
[12] = Growth inhibition of human UACC62 cells after 48 hrs by sulforhodamine B assay; assay type: functional; settings: UACC-62, 48 h
[13] = Growth inhibition of human SF539 cells after 48 hrs by sulforhodamine B assay; assay type: functional; settings: SF-539, 48 h
[14] = Growth inhibition of human OVCAR4 cells after 48 hrs by sulforhodamine B assay; assay type: functional; settings: OVCAR-4, 48 h
SR = test: Growth inhibition of human SR cells after 48 hrs by sulforhodamine B assay; assay type: functional
SF-268 = test: Growth inhibition of human SF268 cells after 48 hrs by sulforhodamine B assay; assay type: functional; settings: SF-268, 48 h
NCI-H23 = test: Growth inhibition of human NCI-H23 cells after 48 hrs by sulforhodamine B assay; assay type: functional; settings: NCI-H23, 48 h
A-431 = test: Antiproliferative activity against human A431 cells after 48 hrs by sulforhodamine B assay; assay type: functional, cell-based; settings: A-431, 48 h
HT-29 = test: Growth inhibition of human HT-29 cells after 48 hrs by sulforhodamine B assay; assay type: functional; settings: HT-29, 48 h
SNB-75 = test: Growth inhibition of human SNB75 cells after 48 hrs by sulforhodamine B assay; assay type: functional; settings: SNB-75, 48 h
K562 = test: Growth inhibition of human K562 cells after 48 hrs by sulforhodamine B assay; assay type: functional; settings: K562, 48 h
ACHN = test: Growth inhibition of human ACHN cells after 48 hrs by sulforhodamine B assay; assay type: functional
SN12C = test: Growth inhibition of human SN12C cells after 48 hrs by sulforhodamine B assay; assay type: functional
MDA-MB-468 = test: Growth inhibition of human MDA-MB-468 cells after 48 hrs by sulforhodamine B assay; assay type: functional; settings: MDA-MB-468, 48 h
M14 = test: Growth inhibition of human M14 cells after 48 hrs by sulforhodamine B assay; assay type: functional; settings: M14, 48 h
[15] = Growth inhibition of human HCT15 cells after 48 hrs by sulforhodamine B assay; assay type: functional; settings: HCT-15, 48 h
[16] = Growth inhibition of human OVCAR5 cells after 48 hrs by sulforhodamine B assay; assay type: functional; settings: OVCAR-5, 48 h
TK-10 = test: Growth inhibition of human TK10 cells after 48 hrs by sulforhodamine B assay; assay type: functional; settings: TK-10, 48 h
MDA-MB-231 = test: Growth inhibition of human MDA-MB-231 cells after 48 hrs by sulforhodamine B assay; assay type: functional; settings: MDA-MB-231, 48 h
HeLa [17] = test: Antiproliferative activity against human HeLa cells after 48 hrs by sulforhodamine B assay; assay type: functional, cell-based
SK-MEL-5 = test: Growth inhibition of human SK-MEL-5 cells after 48 hrs by sulforhodamine B assay; assay type: functional; settings: SK-MEL-5, 48 h
[18] = Growth inhibition of human BT549 cells after 48 hrs by sulforhodamine B assay; assay type: functional; settings: BT-549, 48 h
SK-MEL-2 = test: Growth inhibition of human SK-MEL-2 cells after 48 hrs by sulforhodamine B assay; assay type: functional; settings: SK-MEL-2, 48 h
MDA-MB-435 [19] = test: Growth inhibition of human MDA-MB-435 cells after 48 hrs by sulforhodamine B assay; assay type: functional; settings: MDA-MB-435, 48 h
[20] = Growth inhibition of human SF295 cells after 48 hrs by sulforhodamine B assay; assay type: functional; settings: SF-295, 48 h
786-0 = test: Growth inhibition of human 786-0 cells after 48 hrs by sulforhodamine B assay; assay type: functional; settings: 786-0, 48 h
[21] = Antiproliferative activity against human SKOV3 cells overexpressing wild type beta3 tubulin after 48 hrs by sulforhodamine B assay; assay type: functional, cell-based; settings: SK-OV-3, 48 h
SNB-19 = test: Growth inhibition of human SNB19 cells after 48 hrs by sulforhodamine B assay; assay type: functional; settings: SNB-19, 48 h
[22] = Growth inhibition of human RXF393 cells after 48 hrs by sulforhodamine B assay; assay type: functional; settings: RXF 393, 48 h
CCRF-CEM = test: Growth inhibition of human CCRF-CEM cells after 48 hrs by sulforhodamine B assay; assay type: functional
NCI-H226 = test: Growth inhibition of human NCI-H226 cells after 48 hrs by sulforhodamine B assay; assay type: functional; settings: NCI-H226, 48 h
[23] = Growth inhibition of human MOLT4 cells after 48 hrs by sulforhodamine B assay; assay type: functional; settings: MOLT-4, 48 h
[24] = Induction of microtubule depolymerization in rat A10 cells after 18 hrs by indirect immunofluorescence assay; assay type: cell-based
HL-60(TB) = test: Growth inhibition of human HL-60(TB) cells after 48 hrs by sulforhodamine B assay; assay type: functional; settings: HL-60, 48 h
HeLa [25] = test: Resistance ratio of IC50 for human HeLa cells overexpressing wild type beta3 tubulin to IC50 for human HeLa cells; assay type: functional
[26] = Growth inhibition of human COLO205 cells after 48 hrs by sulforhodamine B assay; assay type: functional; settings: COLO 205, 48 h
[27] = Antiangiogenic activity in VEGF-165 and bFGF-stimulated chicken embryo chorioallantoic membrane assessed as inhibition of blood vessel formation after 40 hrs by microscopy; assay type: functional, tissue-based, Gallus gallus
IGROV-1 = test: Growth inhibition of human IGROV1 cells after 48 hrs by sulforhodamine B assay; assay type: functional; settings: IGROV-1, 48 h
U-251 = test: Growth inhibition of human U251 cells after 48 hrs by sulforhodamine B assay; assay type: functional; settings: U-251, 48 h
KM12 = test: Growth inhibition of human KM12 cells after 48 hrs by sulforhodamine B assay; assay type: functional; settings: KM12, 48 h
[28] = Growth inhibition of human PC3 cells after 48 hrs by sulforhodamine B assay; assay type: functional; settings: PC-3, 48 h
NCI-H460 = test: Growth inhibition of human NCI-H460 cells after 48 hrs by sulforhodamine B assay; assay type: functional; settings: NCI-H460, 48 h
[29] = Growth inhibition of human HOP92 cells after 48 hrs by sulforhodamine B assay; assay type: functional; settings: HOP-92, 48 h
[30] = Ratio of EC50 for microtubule depolymerization in rat A10 cells to IC50 for human MDA-MB-435 cells
[31] = Growth inhibition of human EKVX cells after 48 hrs by sulforhodamine B assay; assay type: functional

## Cc1nc(N(C)c2ccc3c(c2)CCO3)c2cc(C)oc2n1
SW-620
  GI50: 41.6 nM
NCI-H522
  GI50: 12.9 nM
[1]
  GI50: 63 nM
[2]
  GI50: 54.2 nM
SK-OV-3 [3]
  GI50: 37.6 nM
HeLa [4]
  IC50: 94 nM
MDA-MB-435 [5]
  IC50: 96.2 nM
SK-OV-3 [6]
  Ratio IC50: 1.3
DU-145
  GI50: 44.1 nM
[7]
  GI50: 45.1 nM
HOP-62
  GI50: 39.6 nM
NCI/ADR-RES
  GI50: 26.5 nM
[8]
  IC50: 155 nM
[9]
  GI50: 24.5 nM
MCF7
  GI50: 40.2 nM
[10]
  GI50: 45.6 nM
[11]
  GI50: 31 nM
CAKI-1
  GI50: 40.1 nM
[12]
  GI50: 61.3 nM
[13]
  GI50: 31.6 nM
[14]
  GI50: 83.4 nM
SR
  GI50: 36.6 nM
SF-268
  GI50: 13.9 nM
NCI-H23
  GI50: 43.9 nM
A-431
  IC50: 38.3 nM
HT-29
  GI50: 32.4 nM
SNB-75
  GI50: 30.4 nM
K562
  GI50: 31.7 nM
ACHN
  GI50: 64.2 nM
SN12C
  GI50: 97.2 nM
MDA-MB-468
  GI50: 22.1 nM
M14
  GI50: 34.8 nM
[15]
  GI50: 38.9 nM
[16]
  GI50: 262 nM
TK-10
  GI50: 50.2 nM
MDA-MB-231
  GI50: 148 nM
HeLa [17]
  IC50: 105 nM
SK-MEL-5
  GI50: 31.4 nM
[18]
  GI50: 77.2 nM
SK-MEL-2
  GI50: 26.4 nM
MDA-MB-435 [19]
  GI50: 14 nM
[20]
  GI50: 30.5 nM
786-0
  GI50: 80.4 nM
[21]
  IC50: 120 nM
SNB-19
  GI50: 56.5 nM
[22]
  GI50: 21.2 nM
CCRF-CEM
  GI50: 58.1 nM
NCI-H226
  GI50: 162 nM
[23]
  GI50: 76.7 nM
[24]
  EC50: 606 nM
HL-60(TB)
  GI50: 27.6 nM
HeLa [25]
  Ratio IC50: 0.9
[26]
  GI50: 40.3 nM
[27]
  IC50: 14000 nM
IGROV-1
  GI50: 62.9 nM
U-251
  GI50: 39.7 nM
KM12
  GI50: 40.1 nM
[28]
  GI50: 52.2 nM
NCI-H460
  GI50: 42 nM
[29]
  GI50: 45.8 nM
[30]
  Ratio: 6
[31]
  GI50: 70 nM
